The values below come from paper PMC3198688, “Design and development of a peptide-based adiponectin receptor agonist for cancer treatment” (BMC Biotechnology, 2011).

For data set [1], the system named is MCF-7 breast cancer cells. Briefly: Growth inhibition (cytostatic) screening in MCF-7 cells. The format is cell-based, human. The protocol:
Biological activity of the peptides was first assessed using MCF-7 breast cancer cells that are known to express AdipoR1 [38]. MCF-7 cell line was obtained from ATCC (Manassas, VA) and routinely grown in DMEM:F12 plus 5% calf serum (Cellgro Mediatech, Manassas, VA) at 37°C, 5% CO2. For screening experiments, MCF-7 cells were plated in 24-well plates at the concentration of 30,000 cells/well. After 12 h of culture in the growth medium, the cells were synchronized in serum-free medium (SFM) (DMEM:F12 supplemented with […] bovine serum albumin, 1 mM FeSO4 and 2 mM L-glutamine) for 24 h, and then shifted back to the full growth medium containing either gAd (Phoenix Secretomics, Burlingame, CA) at 50 ng/mL, individual peptides, or no test compounds. After 24 h, the cells were counted under the microscope with trypan-blue exclusion. Each experiment was performed in triplicate and repeated at least three times.
The effects of the lead active peptide 355 ([…]) on cell proliferation were tested in breast cancer cell lines (MCF-7, MDA-MB-231) and in glioblastoma cells (LN18), all obtained from ATCC and routinely cultured as described previously. The peptide was tested at 10 pM-100 μM concentrations under conditions described above under peptide screening.

In data set [2] the test system is AdipoR1 extracellular loops. Briefly: Screening of AdipoR1/peptide binding (ELISA plate, biotin-labeled loop peptides). The settings on record: preliminary, qualitative study; biotin-labeled loop fragments; data not shown. An excerpt:
(§1) The 66 unmodified adiponectin array peptides were individually dried down to wells of an ELISA plate, and tested for binding to biotin-labeled linear synthetic models of the 4 extracellular loops of AdipoR1. The receptor/peptide interaction was detected by horseradish-peroxidase conjugated streptavidin.

The target in data set [3] is T1, AdipoR1 extracellular loops (Homo sapiens, UniProt Q96A54).
T1 construct: biotin-labeled linear synthetic models of the 4 extracellular loops of AdipoR1; made in house; host or cells: chemical solid-phase peptide synthesis (Fmoc), no expression host
The description is as above. The following applies: preliminary, qualitative study; biotin-labeled loop fragments; data not shown.
From the text: as §1

The nature of data set [4]: Peptide stability in whole mouse blood. The format is in vitro ADME. The protocol:
Sixty μg of ADP 355 were dissolved in 100 μL water, and 10 μL aliquots were mixed with 100 μL of freshly drawn mouse blood. After 30 min of incubation at 37°C, blood cells were centrifuged at 10,000 × g. Fifty μL serum was mixed with 50 μL phosphate buffered saline pH 6.8 (PBS), and serum proteins were precipitated by addition of 45 μL aqueous 15% trichloroacetic acid (TCA) for 10 min at 4°C. After centrifugation at 12,000 × g, the supernatant was neutralized with 0.1 M aqueous sodium hydroxide and 0.5 μL of this solution was mixed with 0.5 μL α-cyano-4-hydroxycinnamic acid (4 mg/mL in 60% aqueous acetonitrile containing 0.1% TFA) as matrix on a sample plate. Analysis was performed using a MALDI time-of-flight tandem mass spectrometer (MALDI-TOF/TOF-MS, 4700 proteomic analyzer, Applied Biosystems, Weiterstadt, Germany). Additionally, the neutralized supernatant was loaded on a Jupiter C18 RP-HPLC column (4.6 mm internal diameter, 150 mm length, 5 μm particle size, 30 nm pore size) previously calibrated with known amounts of ADP 355 dissolved in PBS. Absorbance was measured at 214 nm.

Data set [5] is described as follows: In vivo toxicity in CBA/J mice. The following applies: for Kidney weight / Liver weight / Spleen weight: CBA/J mice, day 5.
From the text: On day 5, the mice were sacrificed by CO2 inhalation. The potential peptide elimination organs: the livers, spleens and kidneys were removed and weighed.

Read-outs that look alike come from different tables or passages of the source. Square brackets hold non-standard residues; d marks the D form. Peptide text beside a SMILES is read from it. Nva = CCC[C@H](N)C(=O)O

In the case of `CC(C)C[C@H](NC(=O)CNC(=O)[C@@H]1CCCN1)C(=O)N[C@@H](Cc1ccc(O)cc1)C(=O)N[C@@H](Cc1ccc(O)cc1)C(=O)N[C@@H](Cc1ccccc1)C(N)=O` [Middle 6 of 25, H-Pro-Gly-Leu-Tyr-Tyr-Phe -NH2] (H-PGLYYF-NH2), the figures for the “biological activity in cell growth inhibition assays” value in data set [1] and in data set [1] (listed as fragment 157-162) were “inactive” and “did not exhibit any biological activity”, respectively.
Turning to `CC[C@H](C)[C@H](NC(=O)[C@@H](N)CC(N)=O)C(=O)N1CCC[C@H]1C(=O)NCC(=O)N[C@@H](CC(C)C)C(=O)N[C@@H](Cc1ccc(O)cc1)C(=O)N[C@@H](Cc1ccc(O)cc1)C(=O)N[C@@H](Cc1ccccc1)C(=O)N[C@@H](C)C(=O)N[C@@H](Cc1ccc(O)cc1)C(N)=O` [ADP 25, H-Asn-Ile-Pro-Gly-Leu-Tyr-Tyr-Phe-Ala-Tyr-NH2] (H-NIPGLYYFAY-NH2), in data set [1], the “biological activity in cell growth inhibition assays” value is reported as “fully active”. Also, the “binding to the other extracellular loops of AdipoR1” value in data set [2] is on record as “not other loops”. The “binding to the first extracellular loop of AdipoR1” value in data set [3] is given as “bound the first extracellular loop of AdipoR1”.
As to `CCC[C@H](NC(=O)[C@@H]1CCCN1C(=O)[C@@H](NC(=O)[C@H](N)CC(N)=O)[C@@H](C)CC)C(=O)N[C@@H](CC(C)C)C(=O)N[C@@H](Cc1ccc(O)cc1)C(=O)N[C@H](CO)C(=O)N[C@@H](Cc1ccccc1)C(=O)N[C@@H](C)C(=O)N[C@H](CO)C(N)=O` [ADP 355, H-DAsn-Ile-Pro-Nva-Leu-Tyr-DSer-Phe-Ala-DSer-NH2] (H-[dN]IP[Nva]LY[dS]FA[dS]-NH2), the “stability in whole mouse blood after 30 min” value in data set [4] (freshly drawn whole mouse blood, 37°C, 30 min, 10 μL of 60 μg/100 μL peptide in 100 μL blood, TCA precipitation, MALDI-TOF/TOF-MS and C18 RP-HPLC (214 nm)) is “without noticeable degradation”. Further, the “stability in mouse blood or serum” value in data set [4] (mouse blood or serum, 37°C (abstract)) is listed as “at least 30 min”. Also, the “Kidney weight” value in data set [5] (5 mg/kg bolus ip) came out at 0.30 g; in data set [5] (10 mg/kg bolus ip) it was 0.29 g; in data set [5] (25 mg/kg bolus ip), 0.35 g; in data set [5] (50 mg/kg bolus ip), 0.31 g. Further, the “Liver weight” value in data set [5] (5 mg/kg bolus ip) is recorded as 1.02 g; in data set [5] (10 mg/kg bolus ip) it was 1.09 g; in data set [5] (25 mg/kg bolus ip) it was 1.24 g; in data set [5] (50 mg/kg bolus ip), 1.07 g. The “Spleen weight” value in data set [5] (5 mg/kg bolus ip) is given as 0.07 g; in data set [5] (10 mg/kg bolus ip), 0.06 g; in data set [5] (25 mg/kg bolus ip) it was 0.07 g; in data set [5] (50 mg/kg bolus ip), 0.07 g. In addition, the “signs of systemic toxicity (tremor, head tilt, reduced activity and squinting)” value in data set [5] (healthy CBA/J mice, bolus ip up to 50 mg/kg, observed for 4 days) is recorded as “no signs of systemic toxicity”.
